Data on one substance can be found in patent publication US20140341922A1, “Method for Overcoming Tolerance to Targeted Anti-Cancer Agent” (SUN R&DB Foundation, priority 2011, published 2014).

Assay [1] deals with IGF-1R, EGFR, Src, Akt, mTOR phosphorylation. In words: Western blot of IGF-1R, EGFR, Src, Akt signaling after cixutumumab. In kind it is cell-based, human. The protocol: Preparation of total cell lysates, Western blot analysis, and immunoprecipitation were performed according to methods described in our previous report (Morgillo et al., 2006).
(§1) Total cell lysates were immunoprecipitated with antibodies against integrin β3, integrin β1, or IgG. The precipitates with protein A agarose were resolved by sodium dodecyl sulfate-polyacrylamide gel electrophoresis (SDS-PAGE) and transferred to a polyvinylidene difluoride (PVDF) membrane. Western blot analysis was performed using specific Abs described as follows, and antigen-antibody complexes were visualized using enhanced chemiluminescence plus kits (Amersham Biosciences, Piscataway, N.J.).
The present inventors investigated the mechanisms involved in the resistance to cixutumumab treatment in HNSCC and NSCLC cells. cixutumumab resistant (LN686, FADU, 226B, 226Br, H596, and H460) or -sensitivity (UMSCC38, OSC19, H1299, and A549m) lines grown in TCP, PCP, UAP, or soft agar were untreated or treated with 25 μg/ml of cixutumumab for 6 h, and then were stimulated with IGF-1 for 30 min. Expression of several proteins were analyzed by Western blot analysis.
Cixutumumab-resistant (LN686, FADU, 226B, 226Br, H596, and H460) or -sensitive (UMSCC38, OSC19, H1299, and A549m) cell lines grown in PCP were untreated or treated with 25 μg/ml of cixutumumab for 7 days, and then were stimulated with 10% FBS for 30 min. Expression of several proteins were analyzed by western blot analysis.
Because cross-talk between EGFR and IGF-1R signalings have been proposed as a major mechanism of a resistance to TKIs of IGF-1R and EGFR (Buck et al., 2008; Morgillo et al., 2006), the present inventors next examined whether cixutumumab treatment induces activation of EGFR and Akt phosphorylation. After cixutumumab-resistant (LN686, FADU, 226B, 226Br, H596, and H460) or -sensitive (UMSCC38, OSC19, H1299, and A549m) cell lines grown in PCPs were treated with cixutumumab, 10% FBS was treated for 30 min. Several phosphorylated proteins and actin were analyzed by western blot analysis. In addition, densitometric analysis was performed to quantify the expression of the proteins for comparisons between cixutumumab-treated and control cells treated with vehicle.
(§2) The LN686 cells grown in PCP were treated with cixutumumab (25 μg/ml) for indicated times prior to stimulation with 10% FBS (FIGS. 14 and 15) or IGF-1 (100 ng/ml) (FIGS. 16 and 17) in the presence or absence of anti-human IGF-1 neutralizing monoclonal antibody (αIGF-1) (FIGS. 15 and 16) for indicated times (FIG. 16) or for 30 min (FIGS. 14, 15, and 17). Immunoprecipitation with whole proteins or integrin β3 antibodies was performed on the presented proteins, and expression of the proteins was analyzed by western blot analysis.
In addition, LN686 cells grown in PCP were treated with cixutumumab (25 μg/ml) for 7 days in the absence of FBS. The results obtained by analyzing p-IGF-1R (Y1131), IGF-1R, p-Src (Y416), Src, p-EGFR (Y845), p-EGFR (Y1068), EGFR, p-Akt (S473), and Akt using western blot analysis. LN686 cells stimulated with 10% serum for 30 min were included as a control.
Background: A western blot detects proteins with antibodies after separation by electrophoresis.

Assay [2] has as its system LN686, H226B, UMSCC38 and A549m xenograft tumors. In words: Xenograft tumors of drug-resistant and -sensitive cells in nude mice. The class given is in vivo. Conditions: intraperitoneal, 25 mg/kg twice a week. The protocol:
LN686, UMSCC38, H226B, or A549m cells (1×10^6 cells/mouse in 100 μl of PBS) were subcutaneously injected into nude mice at a single dorsal flank site (6-9 mice per group). For HNSCC patient-derived tumor xenografts, primary human tumor specimens were collected from an untreated patient who underwent lobectomies of squamous carcinoma of the oral cavity. The tumors were cut into small pieces with a size of 2-mm^3 and subcutaneously implanted into the nude mice (one piece per mouse). At 0 day (the time point when tumor size reached to 80 to 100 mm^3) mice were treated with cixutumumab (10 mg/kg, i.p., once or twice a week), Ad-EV (3×10^11 pfu, intratumoral injection, once a week), Ad-CSK (3×10^11 pfu, intratumoral injection, once a week), siCon, siintegrin β3 ([…], i.p., once a week), dasatinib (20 mg/kg, oral gavage, daily), cixutumumab and Ad-CSK, or cixutumumab and dasatinib.
Tumor xenografts were treated with vehicle or cituxumumab (intraperitoneal, 25 mg/kg) twice a week. Data are presented as mean tumor volume ±SD for indicated time or mean tumor weight at the date of euthanasia ±SD (*P<0.05, **P<0.01, ***P<0.001). […] Thus, antitumor activity of cixutumumab was consistent in cells grown in 3D (or 3D-mimicking) conditions in vitro and in those grown in vivo.

Assay [3] deals with 13 HNSCC and 6 NSCLC cells. In words: MTT cell viability in conventional 2D culture (TCPs). In kind it is cell-based, human. Conditions: 25 μg/ml, up to 7 days, MTT assay. How it is done: A panel of 13 HNSCC and 6 NSCLC cells grown in 2D culture conditions using TCPs were treated with 25 μg/ml cixutumumab, and the effect of cixutumumab on growth of cancer cells tested was analyzed by the MTT assay.
The effect of cixutumumab on growth of 13 HNSCC and 6 NSCLC cells was evaluated by the MTT assay, and the results are shown in FIG. 2.
LN686, UMSCC38, and A549m cells were treated with cixutumumab diluted in 1% FBS-containing medium for 3 and 5 days. Cell viability was evaluated by the MTT assay.
For orientation: Tetrazolium dyes change colour on reduction, which living cells bring about.

For a further assay, the system named is integrin β3. In words: Immunoprecipitation of integrin β3 / β1 with Src, FAK, p85. The class given is cell-based, human. The protocol: as §1, §2

As for “cixutumumab: humanized mAb targeting IGF-1R, provided by ImClone Systems”, the “IGF-1-induced IGF-1R and Akt phosphorylation, and total IGF-1R expression” value in assay [1] (25 μg/mL for 6 h, LN686 and OSC19 cells in TCPs, PCPs, UAPs, soft agar) is given as “effectively suppressed”. Further, the “phosphorylation of Akt and downstream effectors mTOR, p70S6K, S6” value is reported as “not to inhibit or to even increase” in assay [1] (LN686 (cixutumumab-resistant)) and “inhibited” in assay [1] (OSC19 (cixutumumab-sensitive)). For the same substance, the “time IGF-1R remained dephosphorylated” value in assay [1] (LN686 in PCP, 25 μg/ml, no change in IGF-1R level) worked out at 3 h. In addition, in assay [1] (LN686 in PCP, 30 min pretreatment, 10% FBS stimulation), the “levels of p-IGF-1R, p-EGFR (Y845), p-Src (Y416), and p-Akt (S473)” value is “decreased”. Further, the “phosphorylation of Src, FAK, EGFR (Y845), Akt, mTOR” value in assay [1] (LN686 in PCP, one hour treatment, 10% FBS stimulation) is listed as “rapidly rephosphorylated”. For the same substance, the “EGFR, Src, or Akt phosphorylation” value in assay [1] (cixutumumab alone, absence of IGF-1 stimulation, LN686) was “failed to induce”. Besides, in assay [1] (cixutumumab-resistant lines in PCPs, 7 days, 10% FBS 30 min), the “phosphorylation of EGFR at Src-specific site (Y845) and of Src (Y416)” value is given as “increased”. Further, the “phosphorylation of EGFR at Tyr1068” value in assay [1] (drug-resistant lines in PCPs, 7 days, 10% FBS 30 min) was “increased”. Also, the “growth and weight of xenograft tumors” value in assay [2] (LN686 and H226B xenografts) is “no significant effects”; in assay [2] (UMSCC38 and A549 xenografts), “significantly decreased”. In assay [3], the “viability of cells grown in 2D culture conditions” value is given as “did not inhibit”. In the assay with integrin β3 (LN686 in PCP, 25 μg/ml, time-dependent), the “FBS-induced associations between integrin β3 and Src or p85 and phosphorylation of FAK and Src” value is reported as “enhanced”. For the same substance, the “associations between integrin β1 and p-Src (Y416) or p-FAK (Y861)” value in the assay on integrin β3 (after IGF-1 stimulation, cixutumumab pretreatment) is listed as “did not affect”.
